Target: Tyrosine-protein kinase BTK (Homo sapiens, UniProt Q06187)
Assay: Btk Enzyme Activity Assay: BTK enzymatic activity was determined with the LANCE (Lanthanide Chelate Excite) TR-FRET (Time-resolved fluorescence resonance energy transfer) assay. […] Phosphorylation reactions were allowed to proceed for 120 minutes. […] After 60 minutes incubation with detection reagents, reaction plates were read on a PerkinElmer EnVision plate reader using standard TR-FRET protocol. […] IC50 values were determined by 4 parameter robust fit of TR-FRET ratio values vs. (Log10)) compound concentrations.

Tyrosine-protein kinase BTK, sequence (Q06187 whole entry): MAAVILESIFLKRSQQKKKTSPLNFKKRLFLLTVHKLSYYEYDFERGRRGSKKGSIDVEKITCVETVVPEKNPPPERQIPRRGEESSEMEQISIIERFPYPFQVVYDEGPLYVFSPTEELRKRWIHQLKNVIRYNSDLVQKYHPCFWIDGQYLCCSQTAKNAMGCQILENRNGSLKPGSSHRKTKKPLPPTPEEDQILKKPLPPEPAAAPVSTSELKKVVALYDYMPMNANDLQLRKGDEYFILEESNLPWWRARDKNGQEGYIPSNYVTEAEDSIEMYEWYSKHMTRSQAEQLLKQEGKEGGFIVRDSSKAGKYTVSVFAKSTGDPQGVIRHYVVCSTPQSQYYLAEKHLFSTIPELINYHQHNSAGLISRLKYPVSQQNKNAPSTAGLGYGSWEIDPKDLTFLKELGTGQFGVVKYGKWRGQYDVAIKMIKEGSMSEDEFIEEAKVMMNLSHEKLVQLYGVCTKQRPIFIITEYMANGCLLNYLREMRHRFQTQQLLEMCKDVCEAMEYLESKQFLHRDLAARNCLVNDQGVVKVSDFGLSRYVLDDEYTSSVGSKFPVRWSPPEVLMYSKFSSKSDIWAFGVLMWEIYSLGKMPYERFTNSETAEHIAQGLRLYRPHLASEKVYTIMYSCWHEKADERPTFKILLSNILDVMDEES

In the case of `Nc1nccn2c([C@@H]3CC[C@@H](CC(=O)O)C3)nc(-c3ccc(C(=O)Nc4cc(C(F)(F)F)ccn4)cc3)c12`, the IC50 is reported as 0.16 nM.

Reference: ChEMBL document CHEMBL5725743, “Benzamide imidazopyrazine Btk inhibitors” (2018)
